Converted amounts (≈) assume the structure as drawn.
Assays:
[1] = system: Daphnia magna; conditions: chronic/long-term; duration: 21 days; reproduction
[2] = system: Bibionidae; conditions: chronic/long-term; development
[3] = system: Colinus virginianus
[4] = system: Canidae; conditions: chronic; duration: 6 months; oral; Dog Other; clinical signs
[5] = system: Mus musculus
[6] = system: Tagia sp.; conditions: acute; mortality
[7] = system: Oncorhynchus mykiss
[8] = system: Rattus norvegicus; conditions: reproduction developmental
[9] = system: Anas platyrhynchos; conditions: short-term; oral; feed; mortality
[10] = system: Apis mellifera; conditions: acute; duration: 48 hours; dermal; mortality
[11] = system: Aphidius rhopalosiphi; test: LR50; higher = less toxic; conditions: acute; duration: 48 hours; mortality

COP(=S)(OC)Oc1c(Cl)cc(C)cc1Cl [Tolclofos-methyl]
NOEC [1]: 0.026 mg/L
NOEC [2]: 0.25 mg/L
LD50 ([3]; acute, oral, mortality): > 5000 mg/kg
NOEL ([3]; reproduction developmental): 49 mg/kg-day
NOAEL [4]: 21 mg/kg-day
LD50 ([5]; acute, oral, mortality): 3500 mg/kg
NOAEL ([5]; chronic, duration: 2 years, clinical signs): 6.4 mg/kg-day
LC50 [6]: > 1000 mg/kg
LC50 ([7]; acute, duration: 96 hours, mortality): 0.69 µg/mL (≈ 2.29 µM)
NOEC ([7]; chronic/long-term, duration: 97 days, growth): 0.012 mg/L
NOEC [8]: 70.6 mg/kg-day
LC50 [9]: > 1620 mg/kg-day
LD50 [10]: > 100 µg/piece
LR50 [11]: 43.7 g/ha
